Reference: patent US5142046A, “Optically active pyridobenzoxazine derivatives and intermediates thereof” (Daiichi Pharmaceutical Co., Ltd., priority 1985, dated 1992)
≈ marks a conversion by molar mass, not a printed value.

What was measured:
K. pneumoniae, Type 2 = assay: Minimum Inhibitory Concentration (MIC), standard method of The Japan Society of Chemotherapy; details: Klebsiella pneumoniae, TYPE2, read-out: Minimum Inhibitory Concentration (MIC)
Source text: (§1) The test method was in accordance with the standard method specified by The Japan Society of Chemotherapy.

Ser. marcescens, 10100 = assay: as above; details: Serratia marcescens, 10100, read-out: Minimum Inhibitory Concentration (MIC)
Source text: as §1

in vivo = details: mouse, iv
E. coli, NIHJ = assay: Minimum Inhibitory Concentration (MIC), standard method of The Japan Society of Chemotherapy; details: Escherichia coli, read-out: Minimum Inhibitory Concentration (MIC)
Source text: as §1

S. aureaus, Smith = assay: as above; details: read-out: Minimum Inhibitory Concentration (MIC)
Source text: as §1

Ps. maltophilia, IID1275 = assay: as above; details: Stenotrophomonas maltophilia, IID1275, read-out: Minimum Inhibitory Concentration (MIC)
Source text: as §1

Ps. aeruginosa, 32121 = assay: as above; details: Pseudomonas aeruginosa, 32121, read-out: Minimum Inhibitory Concentration (MIC)
Source text: as §1

male mice = assay: acute intravenous toxicity in male mice; details: for Day after treatment 1 (number of mice dead) / Day after treatment 2 (number of mice dead) / Day after treatment 3 (number of mice dead) / Mortality: i.v.; for Day after treatment 1 (number of mice dead) / Day after treatment 2 (number of mice dead) / Day after treatment 3 (number of mice dead): 5 male mice; for Day after treatment 1 (number of mice dead): day 1; for Day after treatment 2 (number of mice dead): day 2; for Day after treatment 3 (number of mice dead): day 3; for Mortality: male mice; for acute toxicity (LD50) compared with racemate, in words: mice, intravenous, relative to (±)-compound
Ps. aeruginosa, 32104 = assay: Minimum Inhibitory Concentration (MIC), standard method of The Japan Society of Chemotherapy; details: Pseudomonas aeruginosa, 32104, read-out: Minimum Inhibitory Concentration (MIC)
Source text: as §1

S. aureaus, 209P = assay: as above; details: read-out: Minimum Inhibitory Concentration (MIC)
Source text: as §1

Str. pyogenes, G-36 = assay: as above; details: Streptococcus pyogenes, G36, read-out: Minimum Inhibitory Concentration (MIC)
Source text: as §1

various microorganisms = assay: antimicrobial activity compared with racemic Ofloxacin (summary); assay type: cell-based; details: relative to (±)-compound

CC1COc2c(N3CCN(C)CC3)c(F)cc3c(=O)c(C(=O)O)cn1c23 (racemic) [Racemic Ofloxacin, (±)-9-fluoro-3-methyl-10-(4-methyl-1-piperazinyl)-7-oxo-2,3-dihydro-7H-pyrido[1,2,3-de][1,4]-benzoxazine-6-carboxylic acid, reference compound]
MIC (K. pneumoniae, Type 2): 0.1 µg/mL (≈ 0.277 µM) | MIC (Ser. marcescens, 10100): 0.1 µg/mL (≈ 0.277 µM) | LD50 (in vivo): 203 mg/kg | MIC (E. coli, NIHJ): < 0.1 µg/mL | MIC (S. aureaus, Smith): 0.2 µg/mL (≈ 0.553 µM) | MIC (Ps. maltophilia, IID1275): 0.78 µg/mL (≈ 2.16 µM) | MIC (Ps. aeruginosa, 32121): 0.2 µg/mL (≈ 0.553 µM) | Day after treatment 1 (number of mice dead) (male mice; 100 mg/kg): 0 | Day after treatment 2 (number of mice dead) (male mice; 100 mg/kg): 0 | Day after treatment 3 (number of mice dead) (male mice; 100 mg/kg): 0 | Mortality (male mice; 100 mg/kg): 0/5 | Day after treatment 1 (number of mice dead) (male mice; 200 mg/kg): 2 | Day after treatment 2 (number of mice dead) (male mice; 200 mg/kg): 0 | Day after treatment 3 (number of mice dead) (male mice; 200 mg/kg): 0 | Mortality (male mice; 200 mg/kg): 2/5 | Day after treatment 1 (number of mice dead) (male mice; 400 mg/kg): 5 | Day after treatment 2 (number of mice dead) (male mice; 400 mg/kg): 0 | Day after treatment 3 (number of mice dead) (male mice; 400 mg/kg): 0 | Mortality (male mice; 400 mg/kg): 5/5 | MIC (Ps. aeruginosa, 32104): 0.78 µg/mL (≈ 2.16 µM) | MIC (S. aureaus, 209P): 0.39 µg/mL (≈ 1.08 µM) | MIC (Str. pyogenes, G-36): 1.56 µg/mL (≈ 4.32 µM)

CCN1CCN(c2c(F)cc3c(=O)c(C(=O)O)cn4c3c2OC[C@@H]4C)CC1 [Example 17, (S)-(-)-9-Fluoro-3-Methyl-10-(4-Ethyl-1-Piperazinyl)-7-Oxo-2,3-Dihydro-7H-Pyrido[1,2,3-de][1,4]Benzoxazine-6-Carboxylic Acid]
MIC (K. pneumoniae, Type 2): < 0.1 µg/mL | MIC (Ser. marcescens, 10100): < 0.1 µg/mL | MIC (E. coli, NIHJ): < 0.1 µg/mL | MIC (S. aureaus, Smith): < 0.1 µg/mL | MIC (Ps. maltophilia, IID1275): 0.1 µg/mL (≈ 0.266 µM) | MIC (Ps. aeruginosa, 32121): 0.1 µg/mL (≈ 0.266 µM) | MIC (Ps. aeruginosa, 32104): 0.39 µg/mL (≈ 1.04 µM) | MIC (S. aureaus, 209P): 0.1 µg/mL (≈ 0.266 µM) | MIC (Str. pyogenes, G-36): 1.56 µg/mL (≈ 4.16 µM)

C[C@@H]1COc2c(N3CCN(C)CC3)c(F)cc3c(=O)c(C(=O)O)cn1c23 [R(+)-Ofloxacin]
MIC (K. pneumoniae, Type 2): 1.56 µg/mL (≈ 4.32 µM) | MIC (Ser. marcescens, 10100): 1.56 µg/mL (≈ 4.32 µM) | MIC (E. coli, NIHJ): 0.39 µg/mL (≈ 1.08 µM) | MIC (S. aureaus, Smith): 6.25 µg/mL (≈ 17.3 µM) | MIC (Ps. maltophilia, IID1275): 12.5 µg/mL (≈ 34.6 µM) | MIC (Ps. aeruginosa, 32121): 6.25 µg/mL (≈ 17.3 µM) | Day after treatment 1 (number of mice dead) (male mice; 100 mg/kg): 0 | Day after treatment 2 (number of mice dead) (male mice; 100 mg/kg): 0 | Day after treatment 3 (number of mice dead) (male mice; 100 mg/kg): 0 | Mortality (male mice; 100 mg/kg): 0/5 | Day after treatment 1 (number of mice dead) (male mice; 200 mg/kg): 3 | Day after treatment 2 (number of mice dead) (male mice; 200 mg/kg): 0 | Day after treatment 3 (number of mice dead) (male mice; 200 mg/kg): 0 | Mortality (male mice; 200 mg/kg): 3/5 | Day after treatment 1 (number of mice dead) (male mice; 400 mg/kg): 5 | Day after treatment 2 (number of mice dead) (male mice; 400 mg/kg): 0 | Day after treatment 3 (number of mice dead) (male mice; 400 mg/kg): 0 | Mortality (male mice; 400 mg/kg): 5/5 | acute toxicity (LD50) compared with racemate, in words (male mice): substantially equal to that of the (±)-compound | MIC (Ps. aeruginosa, 32104): 12.5 µg/mL (≈ 34.6 µM) | MIC (S. aureaus, 209P): 25 µg/mL (≈ 69.2 µM) | MIC (Str. pyogenes, G-36): < 100 µg/mL

C[C@H]1COc2c(N3CCN(C)CC3)c(F)cc3c(=O)c(C(=O)O)cn1c23 [S(-)-Ofloxacin, S-(-)-9-Fluoro-3-Methyl-10-(4-Methyl-1-Piperazinyl)-7-oxo-2,3-Dihydro-7H-Pyrido[1,2,3-de][1,4]Benzoxazine-6-Carboxylic Acid]
MIC (K. pneumoniae, Type 2): < 0.1 µg/mL | MIC (Ser. marcescens, 10100): < 0.1 µg/mL | MIC (E. coli, NIHJ): < 0.1 µg/mL | MIC (S. aureaus, Smith): 0.1 µg/mL (≈ 0.277 µM) | antimicrobial activity, times higher than that of the (±)-compound (various microorganisms): about 2 times | MIC (Ps. maltophilia, IID1275): 0.39 µg/mL (≈ 1.08 µM) | MIC (Ps. aeruginosa, 32121): 0.1 µg/mL (≈ 0.277 µM) | LD50 (male mice; i.v. in mice): 244 mg/kg | Day after treatment 1 (number of mice dead) (male mice; 100 mg/kg): 0 | Day after treatment 2 (number of mice dead) (male mice; 100 mg/kg): 0 | Day after treatment 3 (number of mice dead) (male mice; 100 mg/kg): 0 | Mortality (male mice; 100 mg/kg): 0/5 | Day after treatment 1 (number of mice dead) (male mice; 200 mg/kg): 0 | Day after treatment 2 (number of mice dead) (male mice; 200 mg/kg): 0 | Day after treatment 3 (number of mice dead) (male mice; 200 mg/kg): 0 | Mortality (male mice; 200 mg/kg): 0/5 | Day after treatment 1 (number of mice dead) (male mice; 400 mg/kg): 5 | Day after treatment 2 (number of mice dead) (male mice; 400 mg/kg): 0 | Day after treatment 3 (number of mice dead) (male mice; 400 mg/kg): 0 | Mortality (male mice; 400 mg/kg): 5/5 | acute toxicity (LD50) compared with racemate, in words (male mice): weaker | MIC (Ps. aeruginosa, 32104): 0.39 µg/mL (≈ 1.08 µM) | MIC (S. aureaus, 209P): 0.2 µg/mL (≈ 0.553 µM) | MIC (Str. pyogenes, G-36): 0.78 µg/mL (≈ 2.16 µM)
